One may read the inhibition as the relative decrease from the control value, in per cent. A lower inhibition goes with a weak effect.

Several values for one entry are separate records, joined by “and”; a condition that tells them apart may be missing. Equal entries are not always repeated. Some results are limits rather than exact numbers.

These results are taken from publication PMC13385394, “Cryo-EM Structure of the TRPC1/5 Heteromer Enables Design of Antidepressant and Anxiolytic Drug with Reduced Side Effects” (Nature Communications, 2026).

For assay [1], the system named is CUMS-induced depressive-like behaviors. In words: Sucrose preference test (SPT) in CUMS model. It is filed as in vivo, mouse. The settings on record: CUMS mice. Here is the method: (§1) The stressors included food and water deprivation, foot shock, wet bedding, cage tilting, restraint, shaking, and olfactory stimulation. These seven stressors were randomly applied each week to ensure unpredictability. The stress induction was maintained continuously for 28 days. Following model establishment, the tail suspension test (TST) was performed to confirm the successful induction of depressive-like behaviors. Mice that met the criteria were randomly assigned to experimental groups.
Acute Treatment: A single dose of the test compound was administered, followed by the sucrose preference test (SPT).
Chronic Treatment: Mice were treated daily for 14 consecutive days. The SPT was conducted on day 11, and the forced swimming test (FST) was performed on day 14.
Mice were acclimated to 1% sucrose solution and plain water for 2 days. On the second day, the positions of the sucrose solution and water were swapped to eliminate positional bias. […] Mice were provided with pre-weighed 1% sucrose solution and plain water. […] Sucrose preference (%) was calculated as Sucrose Preference = A/(A + B)×100.

Assay [2] has the same test system. In words: Forced swim test (FST) in CUMS model. It is filed as in vivo, mouse. As to conditions: CUMS mice; 14 days once-daily oral; vs vehicle. How it is done: as §1, with “groups. Chronic Treatment: Mice were treated daily for 14 consecutive days. The SPT was conducted on day 11, and the forced swimming test (FST) was performed on day 14.” for “groups.”
The next assay addresses T1, TRPC3 homomer (Homo sapiens, UniProt Q13507).
T1 construct: expressed in transfected cells
T1 sequence (Q13507 1-921): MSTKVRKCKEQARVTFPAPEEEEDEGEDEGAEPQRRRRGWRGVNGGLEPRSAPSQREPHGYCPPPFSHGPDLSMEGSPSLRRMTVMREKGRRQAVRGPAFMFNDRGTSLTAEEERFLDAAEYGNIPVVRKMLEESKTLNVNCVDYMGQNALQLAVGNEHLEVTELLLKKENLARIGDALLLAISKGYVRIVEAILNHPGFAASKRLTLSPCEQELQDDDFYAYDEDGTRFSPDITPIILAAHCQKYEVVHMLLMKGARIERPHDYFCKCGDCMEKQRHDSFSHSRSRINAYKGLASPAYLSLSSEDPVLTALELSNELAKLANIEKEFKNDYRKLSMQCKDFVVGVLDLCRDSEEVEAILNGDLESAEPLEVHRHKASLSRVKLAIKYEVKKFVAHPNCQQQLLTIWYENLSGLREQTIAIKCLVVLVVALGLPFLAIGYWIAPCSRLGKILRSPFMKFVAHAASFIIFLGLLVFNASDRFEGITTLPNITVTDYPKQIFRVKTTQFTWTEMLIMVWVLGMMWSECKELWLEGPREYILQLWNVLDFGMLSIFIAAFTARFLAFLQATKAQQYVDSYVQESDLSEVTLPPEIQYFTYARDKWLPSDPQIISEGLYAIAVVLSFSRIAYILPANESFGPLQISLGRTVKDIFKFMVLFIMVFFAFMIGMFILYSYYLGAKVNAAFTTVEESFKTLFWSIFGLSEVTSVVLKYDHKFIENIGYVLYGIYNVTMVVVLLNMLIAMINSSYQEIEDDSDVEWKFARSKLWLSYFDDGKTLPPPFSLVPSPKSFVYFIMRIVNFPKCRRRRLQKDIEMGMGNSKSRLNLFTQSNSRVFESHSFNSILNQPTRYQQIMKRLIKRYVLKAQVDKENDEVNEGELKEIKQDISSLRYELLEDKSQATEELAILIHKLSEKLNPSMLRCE
In words: Whole-cell patch-clamp, inhibition of TRPC3 homomer. It is filed as cell-based. From the text:
(§2) Error bars represent the standard error of the mean (SEM, n = 6 independent
(§3) Error bars represent the standard error of the
(§4) 110 mean (SEM, n = 5 independent cells).
(In general: In patch-clamp work, channel activity is measured electrically.)

Another assay deals with T2, TRPC1/4 heteromer (Homo sapiens, UniProt P48995+Q9UBN4).
T2 construct: expressed in transfected cells
T2 sequence (P48995 whole entry): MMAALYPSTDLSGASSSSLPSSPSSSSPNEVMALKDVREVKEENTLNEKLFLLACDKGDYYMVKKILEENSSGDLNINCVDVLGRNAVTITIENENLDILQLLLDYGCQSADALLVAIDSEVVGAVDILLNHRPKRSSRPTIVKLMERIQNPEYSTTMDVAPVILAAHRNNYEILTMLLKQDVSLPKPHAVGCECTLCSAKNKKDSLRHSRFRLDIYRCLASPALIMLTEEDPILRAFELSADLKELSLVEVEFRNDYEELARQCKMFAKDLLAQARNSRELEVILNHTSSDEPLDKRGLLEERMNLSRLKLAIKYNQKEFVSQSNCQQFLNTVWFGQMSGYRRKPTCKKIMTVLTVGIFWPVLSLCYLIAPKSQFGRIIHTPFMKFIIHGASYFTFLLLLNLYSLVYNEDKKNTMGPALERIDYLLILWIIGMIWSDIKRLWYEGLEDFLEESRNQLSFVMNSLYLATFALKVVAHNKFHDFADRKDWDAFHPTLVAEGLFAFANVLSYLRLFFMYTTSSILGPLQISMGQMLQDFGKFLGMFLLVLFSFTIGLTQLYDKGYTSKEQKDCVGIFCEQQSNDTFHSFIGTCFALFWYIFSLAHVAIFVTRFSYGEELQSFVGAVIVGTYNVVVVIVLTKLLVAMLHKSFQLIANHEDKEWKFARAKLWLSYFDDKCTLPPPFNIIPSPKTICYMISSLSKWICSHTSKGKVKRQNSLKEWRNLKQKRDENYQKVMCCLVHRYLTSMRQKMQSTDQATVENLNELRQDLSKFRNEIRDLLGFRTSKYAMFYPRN
T2 sequence (Q9UBN4 whole entry): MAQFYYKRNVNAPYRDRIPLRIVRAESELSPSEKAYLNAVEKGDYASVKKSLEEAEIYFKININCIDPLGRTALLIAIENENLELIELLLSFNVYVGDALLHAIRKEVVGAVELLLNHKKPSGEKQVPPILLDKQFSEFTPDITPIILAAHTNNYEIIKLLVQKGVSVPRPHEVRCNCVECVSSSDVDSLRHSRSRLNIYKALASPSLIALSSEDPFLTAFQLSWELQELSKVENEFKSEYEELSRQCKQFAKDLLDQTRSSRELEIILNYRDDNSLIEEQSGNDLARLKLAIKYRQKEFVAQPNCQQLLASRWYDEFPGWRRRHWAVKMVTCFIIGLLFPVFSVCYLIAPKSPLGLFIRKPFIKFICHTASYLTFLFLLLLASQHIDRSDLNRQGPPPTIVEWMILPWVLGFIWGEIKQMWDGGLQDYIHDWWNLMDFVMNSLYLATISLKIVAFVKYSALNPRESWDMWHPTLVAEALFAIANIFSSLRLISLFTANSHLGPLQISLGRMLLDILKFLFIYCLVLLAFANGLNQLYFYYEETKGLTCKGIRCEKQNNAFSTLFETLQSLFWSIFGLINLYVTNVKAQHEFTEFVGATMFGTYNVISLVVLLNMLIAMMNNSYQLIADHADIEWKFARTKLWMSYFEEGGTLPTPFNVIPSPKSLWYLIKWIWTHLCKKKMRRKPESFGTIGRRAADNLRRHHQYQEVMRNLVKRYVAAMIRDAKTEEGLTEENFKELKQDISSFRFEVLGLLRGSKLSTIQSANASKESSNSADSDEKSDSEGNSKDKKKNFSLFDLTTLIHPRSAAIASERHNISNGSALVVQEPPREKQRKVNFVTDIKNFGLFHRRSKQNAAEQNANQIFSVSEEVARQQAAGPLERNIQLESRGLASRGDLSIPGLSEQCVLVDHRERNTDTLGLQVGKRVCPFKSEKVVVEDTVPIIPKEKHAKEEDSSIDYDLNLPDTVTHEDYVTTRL
Nature of the assay: Whole-cell patch-clamp, inhibition of TRPC1/4 heteromer. It is filed as cell-based. As to conditions: read-out: IC50, TRPC1/4 heteromers.

Another assay deals with T3, TRPC6 homomer (Homo sapiens, UniProt Q9Y210).
T3 construct: expressed in transfected cells
T3 sequence (Q9Y210 1-931): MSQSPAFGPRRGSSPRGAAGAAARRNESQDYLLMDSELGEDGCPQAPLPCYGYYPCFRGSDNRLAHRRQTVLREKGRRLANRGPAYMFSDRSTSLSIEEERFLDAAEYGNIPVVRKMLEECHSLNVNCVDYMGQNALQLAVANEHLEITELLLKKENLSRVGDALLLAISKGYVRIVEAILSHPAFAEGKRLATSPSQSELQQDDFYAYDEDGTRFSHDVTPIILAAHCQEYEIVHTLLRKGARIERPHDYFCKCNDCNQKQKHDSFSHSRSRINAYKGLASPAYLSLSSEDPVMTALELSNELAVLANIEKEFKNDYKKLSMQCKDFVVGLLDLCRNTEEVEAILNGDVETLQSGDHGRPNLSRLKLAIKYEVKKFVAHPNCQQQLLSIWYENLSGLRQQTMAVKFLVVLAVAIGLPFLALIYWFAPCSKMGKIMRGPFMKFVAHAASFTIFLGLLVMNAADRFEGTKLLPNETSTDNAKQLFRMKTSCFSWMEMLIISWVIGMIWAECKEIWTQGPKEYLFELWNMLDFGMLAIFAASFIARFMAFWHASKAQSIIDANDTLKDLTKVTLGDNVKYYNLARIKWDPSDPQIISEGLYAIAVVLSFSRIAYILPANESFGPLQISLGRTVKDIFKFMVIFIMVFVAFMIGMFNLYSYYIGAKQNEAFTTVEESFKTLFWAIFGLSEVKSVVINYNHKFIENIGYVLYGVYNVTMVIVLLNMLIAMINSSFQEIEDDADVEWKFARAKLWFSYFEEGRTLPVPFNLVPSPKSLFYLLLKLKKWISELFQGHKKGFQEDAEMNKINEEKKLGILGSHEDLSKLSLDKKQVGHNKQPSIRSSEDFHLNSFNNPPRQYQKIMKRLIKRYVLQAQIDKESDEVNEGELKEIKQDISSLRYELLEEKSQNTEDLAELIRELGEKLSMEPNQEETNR
Nature of the assay: Whole-cell patch-clamp, inhibition of TRPC6 homomer. It is filed as cell-based.
From the text: as §2, §3, §4

On to `CN(C)CCCCn1c(=O)c2c(nc(Oc3cccc(Cl)c3)n2Cc2ccc(Cl)cc2)n(C)c1=O` [H08], for which the “sucrose intake (SPT), repeated dosing” value in assay [1] (11 days once-daily oral, vs vehicle) is recorded as “significantly improved sucrose intake”. The “sucrose preference (SPT), single dose” value in assay [1] (single oral dose, JD03-02 30 mg/kg, 30 mg/kg) is listed as “significantly increased sucrose preference”. Besides, the “immobility (FST), repeated dosing” value in assay [2] is “reduced immobility”. For the same molecule, the IC50 is more than 10000 nM against TRPC3 homomer; 6.68 nM and 6.7 nM on TRPC1/4 heteromer; more than 10000 nM against TRPC6 homomer. In addition, the “inhibition of TRPC3” value against TRPC3 homomer (10 μM) is listed as “no more than 40%”. Also, the inhibition at 10 µM on TRPC6 homomer (10 μM) fell in the range of 30 to 40%. At TRPC6 homomer (10 μM), the “inhibition of TRPC6” value is “no more than 40%”.
